Consider 1 molecule from patent US20060008574A1, “Galactosyl isomalt, method for production and use thereof” (priority 2002, published 2006).

The subject of one data set is B. infantis DSM 20223. Put plainly: Fermentation by human bifidobacteria. It counts as cell-based. Details: key: −: no decomposition; +: decomposition and metabolization of galactose from β-1,3-galactosyl isomalt; ++: decomposition and metabolization of galactose and glucose from β-1,3-galactosyl isomalt; +++: complete decomposition of β-1,3-galcatosyl isomalt. As to conditions: medium 2, 48 h. The protocol:
(§1) To investigate the prebiotic and bifidogenic properties of galactosyl isomalt, the growth of various human bifidobacteria was investigated on this substrate in vitro. An anaerobic medium of the following composition was used:
(§2) 22 strains of human bifidobacteria were first precultured in “Hungate” test tubes on the above medium 1, in which the source of carbohydrate had first been replaced by glucose (10 g/L). The strains were then inoculated onto medium 2, incubated for 48 h, and then the optical density (E578), the pH, the formation of acetate and lactate and the decrease of the β-1,3-galactosyl isomalt concentration were determined.
(§3) Various decomposition paths are distinguished with regard to the metabolization of galactosyl isomalt. Some strains degrade galactose from the substrate with a β-galactosidase and metabolize this monosaccharide (+).
(§4) Other strains additionally degrade glucose from the resulting isomalt, in addition to galactose, metabolize both monosaccharides, while this is not true for the resulting mannitol or sorbitol (++). The third group is capable of utilizing galactosyl isomalt as a substrate and also metabolizing mannitol and sorbitol (+++).

Data set [1] relates to B. pseudocatenulatum DSM 20439. As to the kind of experiment: Fermentation by human bifidobacteria. In kind it is cell-based. Details: key: −: no decomposition; +: decomposition and metabolization of galactose from β-1,3-galactosyl isomalt; ++: decomposition and metabolization of galactose and glucose from β-1,3-galactosyl isomalt; +++: complete decomposition of β-1,3-galcatosyl isomalt. Particulars: medium 2, 48 h. The procedure:
as §1, §2, §3, §4

The next data set concerns B. infantis DSM 20090. As to the kind of experiment: Fermentation by human bifidobacteria. In kind it is cell-based. On the set-up: key: −: no decomposition; +: decomposition and metabolization of galactose from β-1,3-galactosyl isomalt; ++: decomposition and metabolization of galactose and glucose from β-1,3-galactosyl isomalt; +++: complete decomposition of β-1,3-galcatosyl isomalt. As to conditions: medium 2, 48 h. The procedure: as §1, §2, §3, §4

The next data set has as its system B. catenulatum DSM 20103. As to the kind of experiment: Fermentation by human bifidobacteria. In kind it is cell-based. On the set-up: key: −: no decomposition; +: decomposition and metabolization of galactose from β-1,3-galactosyl isomalt; ++: decomposition and metabolization of galactose and glucose from β-1,3-galactosyl isomalt; +++: complete decomposition of β-1,3-galcatosyl isomalt. Particulars: medium 2, 48 h. The procedure:
as §1, §2, §3, §4

For another data set, the system named is B. breve DSM 20213. Put plainly: Fermentation by human bifidobacteria. It counts as cell-based. Details: key: −: no decomposition; +: decomposition and metabolization of galactose from β-1,3-galactosyl isomalt; ++: decomposition and metabolization of galactose and glucose from β-1,3-galactosyl isomalt; +++: complete decomposition of β-1,3-galcatosyl isomalt. Particulars: medium 2, 48 h. The protocol: as §1, §2, §3, §4

In data set [2] the test system is B. adolescentis DSM 20086. As to the kind of experiment: Fermentation by human bifidobacteria. In kind it is cell-based. On the set-up: key: −: no decomposition; +: decomposition and metabolization of galactose from β-1,3-galactosyl isomalt; ++: decomposition and metabolization of galactose and glucose from β-1,3-galactosyl isomalt; +++: complete decomposition of β-1,3-galcatosyl isomalt. Particulars: medium 2, 48 h. The procedure: as §1, §2, §3, §4

The next data set relates to B. infantis DSM 20088. As to the kind of experiment: Fermentation by human bifidobacteria. In kind it is cell-based. Details: key: −: no decomposition; +: decomposition and metabolization of galactose from β-1,3-galactosyl isomalt; ++: decomposition and metabolization of galactose and glucose from β-1,3-galactosyl isomalt; +++: complete decomposition of β-1,3-galcatosyl isomalt. Particulars: medium 2, 48 h. The procedure: as §1, §2, §3, §4

The next data set concerns B. longum DSM 20097. Put plainly: Fermentation by human bifidobacteria. Details: key: −: no decomposition; +: decomposition and metabolization of galactose from β-1,3-galactosyl isomalt; ++: decomposition and metabolization of galactose and glucose from β-1,3-galactosyl isomalt; +++: complete decomposition of β-1,3-galcatosyl isomalt. Particulars: medium 2, 48 h. It counts as cell-based. The procedure: as §1, §2, §3, §4

The next data set relates to B. angulatum DSM 20225. As to the kind of experiment: Fermentation by human bifidobacteria. In kind it is cell-based. Details: key: −: no decomposition; +: decomposition and metabolization of galactose from β-1,3-galactosyl isomalt; ++: decomposition and metabolization of galactose and glucose from β-1,3-galactosyl isomalt; +++: complete decomposition of β-1,3-galcatosyl isomalt. As to conditions: medium 2, 48 h. The protocol: as §1, §2, §3, §4

The next data set relates to lactase. Put plainly: Stability with respect to lactase. In kind it is in vitro ADME. Particulars: 0.9 unit lactase, 1% solution, 37° C., 6 h. The source says: The enzyme lactase that is present at the mucosa in the small intestine serves in vivo to break down lactose that gets into the small intestine and the resulting monosaccharides are absorbed into the bloodstream through the intestinal wall.
The enzyme lactase is isolated in a modified method of Wallenfels, K., and Fischer, J. (Z. Physiologische Chemie 321 (1960) 223).
Solutions 1-5: see Example 8c)
Solution 6: 1% solution of lactose in solution 1
Solution 7: 1% solution of isomalt in solution 1
Solution 8: Lactase in solution 1
(solutions 2-7), mixed and incubated at 37° C. The reaction is stopped after 6 h by heating to 95° C. for 15 min.

For data set [3], the system named is pancreatin enzyme (Sigma). Put plainly: Stability with respect to pancreatic enzymes. In kind it is in vitro ADME. Particulars: 1% solution, 0.2% pancreatin, pH 7.0, 210 min at 37° C. The procedure: The pancreatic secretion contains a large number of hydrolases, including carbohydrate-degrading enzymes like α-amylase, which breaks down α-1,4-glucans (starch, glycogen) preferably to maltose and maltooligosaccharides. The test of the stability of saccharides with respect to pancreatic enzymes is carried out as follows.
3.0 mL of a carbohydrate solution (solution 2 to solution 6) is mixed with 0.1 mL of the enzyme solution (solution 7) per batch:
Solution 1: 20 mmol/L Na phosphate buffer, pH 7.0, with 6 mmol/L NaCl
Solution 2: 1% solution of β-1,4-galactosyl isomalt mixture in accordance with the invention, prepared according to Example 2 and Example 4, in solution 1
Solution 3: 1% solution of β-1,3-galactosyl isomalt mixture in accordance with the invention, prepared according to Example 1 and Example 4, in solution 1
Solution 4: 1% solution of β-1,6-galactosyl isomalt mixture in accordance with the invention; prepared according to Example 3 and Example 4, in solution 1
Solution 6: 1% starch solution (soluble starch, according to Zulkowski), in solution 1
Solution 7: 0.2% pancreatin enzyme (Sigma), dissolved in solution 1
After 210 min incubation in a thermomixer (interval shaking) at 37° C., the reaction is stopped by heating to 95° C. for 15 min and the samples are analyzed by HPAEC. The starch-containing sample (solution6+solution 7) is completely hydrolyzed before the HPAEC analysis by heating for 3 h in 1 mol/L hydrochloric acid at 95° C., and the glucose resulting from this is determined in order to calculate the starch content of the sample.

A value given as a limit tells only on which side of the number the result lay.

Take `OCC1O[C@H](OC[C@@H](O)[C@@H](O)[C@H](O)C(O)CO)C(O)C(O[C@@H]2OC(CO)[C@H](O)C(O)C2O)[C@@H]1O` (mixture of isomers) [β-1,3-Galactosyl isomalt, β-D-galactosyl-(1→3)-α-D-glucosyl-(1→6)-D-sorbitol(β-1,3-galactosyl-1,6-GPS) and β-D-galactosyl-(1→3)-α-D-glucosyl-(1→1)-D-mannitol(β-1,3-galactosyl-1,1-GPM)]: the “Growth on β-1,3-galactosyl isomalt” value with B. infantis DSM 20223 was “+++”; in data set [1], “++”; in the data set on B. infantis DSM 20090, “++”; in the data set with B. catenulatum DSM 20103, “++”; with B. breve DSM 20213, “+”; in [2] it was “+++”. In addition, the “Growth on β-1,3-galactosyl isomalt” value in the data set on B. infantis DSM 20088, with B. longum DSM 20097 and with B. angulatum DSM 20225 was “++” in each case. Besides, the “Hydrolysis rate [%], incubation with lactase” value with lactase was 4.8%. Further, in [3], the “Decomposition rate [%]” value is reported as under 1%.
